Measured values taken from patent US7265245B2, “Compounds useful for the treatment of diseases associated with the formation of amyloid fibrils” (Innovaprotean, S.L, priority 2003, dated 2007).
pIC50: −log10 of the molar value.

Each molecule was assayed against Y78F hTTR mutant (Homo sapiens, UniProt P02766, Y98F) (assay: turbidimetric test of amyloidogenesis (fibril formation) inhibiting activity in vitro). Settings: RA(%)=(1−A/(A+B))·100, compared with the rate in the absence of inhibitor.
Format: biochemical
Description: The compounds to be tested as inhibitors were dissolved in DMSO at a concentration of 1.5 mM. The working solution was prepared by 1 to 4 dilution of the previous solution in a water/DMSO mixture (2:1). […] The incubation buffer was 10 mM sodium phosphate, 100 mM potassium chloride, 1 mM EDTA, […]. The dilution buffer was 400 mM sodium acetate, 100 mM potassium chloride, 1 mM EDTA, pH 4.2. The test protocol for an inhibitor was as follows: 20 μl of the protein solution was dispensed in 7 wells of a 96-well microplate. Different volumes of the inhibitor working solution were added to each of the wells to obtain end concentrations of 0 to 40 μM. Incubation buffer was then added to each well up to an end volume of 100 μl. The microplate was incubated at 37° C. in the microplate reader provided with thermostatting and stirring. Incubation proceeded for 30 min at 37° C. with stirring for 15 seconds every minute. 100 μl of dilution buffer was then added to every well, and the mixture was incubated at 37° C. with stirring for 15 seconds every minute in the microplate reader and absorbance was monitored at 330 nm for 1 hour 30 minutes at intervals of 1 minute. The data of absorbance versus time for every well were collected and analysed with the Microsoft Excel program. All tests were done in duplicate.
1.—Initial fibril formation rate. From the absorbance readings at 330 nm with the incubation time for every well, the initial fibril formation rate was calculated as the slope of the initial linear portion of the curve. Thus, the aggregation rate was obtained at every inhibitor concentration. 2.—Aggregation rate versus inhibitor concentration.
The adjusted parameters were: A (in units of absorbance per hour), residual aggregation rate at high inhibitor concentration; B (in units of absorbance per hour), amplitude or maximum reduction of the aggregation rate; and C (in μM^−1) the exponential constant. A+B was the aggregation rate in the absence of inhibitor (maximum aggregation rate). From these parameters, other parameters were extracted that characterised every inhibitor with regard to its capacity and effectiveness in inhibiting fibril formation: • IC50: inhibitor concentration (μM) at which the aggregation was half that in the absence of inhibitor; • Ψ: initial slope of curve v0 versus [I], which reflected the sensitivity of the aggregation process to the inhibitor.

RA (%): % reduction of the rate of aggregation at high inhibitor concentration [%] | Molecule
10 | NC(=O)c1cc(-c2ccc(F)cc2F)ccc1O [Diflunisal amide]
28 | O=C(O)CNC(=O)c1cc(-c2ccc(F)cc2F)ccc1O [Diflunisal glycine]
24 | COC(=O)c1cc(-c2ccc(F)cc2F)ccc1O [Diflunisal methylester]
84 | O=C(O)c1cc(-c2ccc(F)cc2F)ccc1O [Diflunisal, 5-(2,4-difluorophenyl)salicylic acid]
84 | NC(=O)c1cc(-c2ccc(F)cc2F)cc(I)c1O [Iododiflunisalamide, 5-(2,4-difluorophenyl)-3-iodo-salicylamide]
98 | COC(=O)c1cc(-c2ccc(F)cc2F)cc(I)c1O [Iododiflunisalmethyl ester, methyl 5-(2,4-difluorophenyl)-3-iodo-salicylate]
100 | N-[5-(2,4-difluorophenyl)-3-iodo-salicyloyl]glycine [Iododiflunisalglycine]

Same assay, conditions: inhibitor concentration at which the aggregation was half that in the absence of inhibitor; 0 to 40 μM inhibitor, 37° C., acid-induced (dilution buffer pH 4.2)

pIC50 | Molecule
< 4.00 | NC(=O)c1cc(-c2ccc(F)cc2F)ccc1O [Diflunisal amide]
< 4.00 | O=C(O)CNC(=O)c1cc(-c2ccc(F)cc2F)ccc1O [Diflunisal glycine]
< 4.00 | COC(=O)c1cc(-c2ccc(F)cc2F)ccc1O [Diflunisal methylester]
4.93 | NC(=O)c1cc(-c2ccc(F)cc2F)cc(I)c1O [Iododiflunisalamide, 5-(2,4-difluorophenyl)-3-iodo-salicylamide]
4.78 | COC(=O)c1cc(-c2ccc(F)cc2F)cc(I)c1O [Iododiflunisalmethyl ester, methyl 5-(2,4-difluorophenyl)-3-iodo-salicylate]
4.95 | N-[5-(2,4-difluorophenyl)-3-iodo-salicyloyl]glycine [Iododiflunisalglycine]

Same assay, conditions: sensitivity of the aggregation process to the inhibitor; higher = greater inhibiting effect

Ψ: initial slope of curve v0 versus [I] [UA · hr^−1 · μM^−1] | Molecule
0.009 | NC(=O)c1cc(-c2ccc(F)cc2F)ccc1O [Diflunisal amide]
0.011 | O=C(O)CNC(=O)c1cc(-c2ccc(F)cc2F)ccc1O [Diflunisal glycine]
0.011 | COC(=O)c1cc(-c2ccc(F)cc2F)ccc1O [Diflunisal methylester]
0.036 | O=C(O)c1cc(-c2ccc(F)cc2F)ccc1O [Diflunisal, 5-(2,4-difluorophenyl)salicylic acid]
0.041 | NC(=O)c1cc(-c2ccc(F)cc2F)cc(I)c1O [Iododiflunisalamide, 5-(2,4-difluorophenyl)-3-iodo-salicylamide]
0.027 | COC(=O)c1cc(-c2ccc(F)cc2F)cc(I)c1O [Iododiflunisalmethyl ester, methyl 5-(2,4-difluorophenyl)-3-iodo-salicylate]
0.040 | N-[5-(2,4-difluorophenyl)-3-iodo-salicyloyl]glycine [Iododiflunisalglycine]
